Experiments:
thrombin generation [1] = assay: Thrombodynamics-4D thrombography in plasma samples from ADAGE patients on DOACs; assay type: in vivo, human; conditions: for ETP (endogenous thrombin potential, ETP_ATG), median (IQR) / ETP (endogenous thrombin potential, ETP_ATG), range / Thrombin peak height (Cmax_ATG), median (IQR) / Thrombin peak height (Cmax_ATG), range / Thrombography Tlag (Lag_ATG), median (IQR) / Thrombography Tlag (Lag_ATG), range / Time to peak (Tmax_ATG), median (IQR) / Time to peak (Tmax_ATG), range: ADAGE patients, reduced dose (regimens as E1)
Description: (§1) ADAGE is an academic, prospective, observational multicenter study (NCT 02464488; for details, see Foulon-Pinto et al.). We recruited hospitalized patients from the university hospital’s geriatric department (Assistance Publique-Hôpitaux de Paris, Paris, France). […] The DOAC dose regimen was at the discretion of the physician. Exclusion criteria included any acute, unstable comorbid condition or an estimated life expectancy of a few weeks. Sampling (see below) and last DOAC intake times were recorded on a standardized request form. Sampling time points were at the discretion of the physicians over a period of 20 days following inclusion. Time points were classified according to the time elapsed from the last oral intake (T, hours) for patients receiving rivaroxaban. T1 to T4 corresponded to peak time (Tmax), and T20 to T24 corresponded to trough (Tmin). […] Physicians prospectively collected demographic, clinical, and laboratory data (including creatinine clearance [CrCl] calculated with the Cockcroft–Gault formula). The study was approved by the institutionnel Ethics Committee (Comité consultatif de protection des personnes pour la recherche biomédicale–Île-de-France-6–number 15.074bis). All participants gave written informed consent to participate in the study. Only patients for whom remaining plasma aliquots were available were included in the present study.
(§2) Tubes were sent to each centre’s laboratory within 2 hours after sampling and immediately double-centrifuged for 15 minutes at 2000 × g at 15 to 22 °C to obtain platelet-poor plasma. Plasma samples (500 μL aliquots) were stored at −80 °C prior to shipment on dry ice for central analysis (Haematology Laboratory, Hôpital Lariboisière). Plasma samples were thawed for 3 to 5 minutes in a 37 °C water bath just before testing.
(§3) The TD-4D assay was performed centrally using the Thrombodynamics analyzer system (Hemacore, Diapharma) with the TD-4D PLS dedicated kit (Hemacore, Diapharma). The system simultaneously measures spatiotemporal parameters of fibrin clot formation (fibrinography) and TG process (thrombography) in a thin layer of unstirred plasma. Briefly, 120 μL of platelet-poor plasma is added to a microcuvette containing corn trypsin inhibitor to prevent contribution of contact phase activation, then 5 μL of phospholipid solution (manufacturer’s reagent) is added. After incubation for 15 minutes at 37 °C in the Thrombodynamics device, the mixture is transferred to a second microcuvette containing calcium ions, and then immediately transferred to the measurement cuvette. Finally, the activator insert, whose surface is coated with immobilized tissue factor (100 pmol/m^2), is then transferred to the cuvette. The process of fibrin clot formation is recorded in a time-lapse video-microscopy mode using a dark-field light scattering method. Simultaneously, the system monitors TG by fluorimetry, based on the ability of thrombin to cleave a fluorogenic substrate, 7-amino-4-methylcoumarin (AMC) bound to a short amino acid sequence (Arg-Gly-Gly). The rate of AMC formation is proportional to local thrombin concentration. The microcuvette is maintained at 37 °C and is illuminated with red (625 nm) or ultra-violet (365 nm) light emitting diodes. Clot growth is detected with red light scattering, while AMC fluorescence is detected with UV. Scattered red light and fluorescence passing through the macro lens are recorded by a charge-coupled device system. Images under red and blue light are acquired once per minute. The whole analysis lasts 1 hour. The Thrombodynamics software (Hemacore, Diapharma) calculates parameters of spatiotemporal dynamics of fibrin clot formation and TG [40, 46]. […]

[2] = Plasma DOAC concentration in ADAGE patients (chromogenic anti-FXa assay for rivaroxaban and apixaban; anti-FIIa Hemoclot assay for dabigatran); assay type: in vivo, human; conditions: for DOAC concentration, median (IQR): ADAGE patients ≥80 y, reduced dose: rivaroxaban 15 mg once daily, apixaban 2.5 mg twice daily, dabigatran 110 mg twice daily; for DOAC concentration, range: ADAGE patients, reduced dose (regimens as E1)
Description: as §1, §2
Dedicated calibrations and controls were used. The lower limit of quantification was 20 ng/mL for the 3 assays.

fibrin clot formation [3] = assay: Thrombodynamics-4D fibrinography in pooled normal plasma (Cryocheck) spiked with DOACs; assay type: biochemical, human; conditions: 0 to 1000 nM, mainly at low DOAC concentrations
Procedure: (§4) Frozen pooled normal plasma samples (Cryocheck-Cryopep) were spiked with increasing concentrations of DOACs (0-450 ng/mL), as previously described. […] were kindly provided by Bristol Myers Squibb/Pfizer, Bayer Healthcare, and Boehringer Ingelheim, respectively.
The TD-4D assay was performed centrally using the Thrombodynamics analyzer system (Hemacore, Diapharma) with the TD-4D PLS dedicated kit (Hemacore, Diapharma). The system simultaneously measures spatiotemporal parameters of fibrin clot formation (fibrinography) and TG process (thrombography) in a thin layer of unstirred plasma. Briefly, 120 μL of platelet-poor plasma is added to a microcuvette containing corn trypsin inhibitor to prevent contribution of contact phase activation, then 5 μL of phospholipid solution (manufacturer’s reagent) is added. […] The process of fibrin clot formation is recorded in a time-lapse video-microscopy mode using a dark-field light scattering method. […] Clot growth is detected with red light scattering, while AMC fluorescence is detected with UV. Scattered red light and fluorescence passing through the macro lens are recorded by a charge-coupled device system. […]
(§5) The following fibrinography parameters were recorded (see Supplementary Table 1): (i) lag time (Tlag, minutes); (ii) initial rate of clot growth (Vi, μm/min); (iii) rate of clot growth (V, μm/min); (iv) clot size (CS, μm) measured at 30 minutes; (v) clot density (D, arbitrary units); (vi) time to spontaneous clotting (Tsp, minutes). The following thrombography parameters (at the near-activator area) were recorded (see Supplementary Table 1): (i) Tlag (minutes); (ii) time to thrombin peak (minutes); (iii) maximal thrombin concentration (ie, thrombin peak height, Cmax_ATG, AU/L); (iv) endogenous thrombin potential (ETP_ATG, AU⋅min/L); (v) stationary amplitude of moving peak of thrombin (Ast, AU/L); (vi) rate of thrombin peak propagation (μm/min; see Supplementary Videos 1–3).

fibrin clot formation [4] = assay: Thrombodynamics-4D fibrinography in plasma samples from ADAGE patients on DOACs; assay type: in vivo, human
Description: as §1, §2, §3

thrombin generation [5] = assay: Thrombodynamics-4D thrombography in pooled normal plasma (Cryocheck) spiked with DOACs; assay type: biochemical, human
Procedure: as §4
as §3, with “minute.” for “minute. The whole analysis lasts 1 hour. The Thrombodynamics software (Hemacore, Diapharma) calculates parameters of spatiotemporal dynamics of fibrin clot formation and TG [40, 46].”
as §5

[6] = univariate analysis, Tmax, line marked Halving
[7] = univariate analysis, Tmin, line marked Halving
[8] = all ADAGE patient samples, any time point and dose
[9] = Tmax (peak), ADAGE patients, reduced dose (regimens as E1)
[10] = Tmin (trough), ADAGE patients, reduced dose (regimens as E1)
[11] = all ADAGE patient samples, Spearman

[H]/N=C(/N)c1ccc(NCc2nc3cc(C(=O)N(CCC(=O)O)c4ccccn4)ccc3n2C)cc1 [Dabigatran]
ETP (endogenous thrombin potential, ETP_ATG), median (IQR) (thrombin generation [1]; Tmax (peak)): 1036 (724-1501) AU⋅min/L | ETP (endogenous thrombin potential, ETP_ATG), range (thrombin generation [1]; Tmax (peak)): 80-2078 AU⋅min/L | Thrombin peak height (Cmax_ATG), median (IQR) (thrombin generation [1]; Tmax (peak)): 193 (98-243) AU/L | Thrombin peak height (Cmax_ATG), range (thrombin generation [1]; Tmax (peak)): 8-354 AU/L | Thrombography Tlag (Lag_ATG), median (IQR) (thrombin generation [1]; Tmax (peak)): 0.6 (0.4-0.8) min | Thrombography Tlag (Lag_ATG), range (thrombin generation [1]; Tmax (peak)): 0.2 to 1.5 min | Time to peak (Tmax_ATG), median (IQR) (thrombin generation [1]; Tmax (peak)): 2.6 (2.1-3.1) min | Time to peak (Tmax_ATG), range (thrombin generation [1]; Tmax (peak)): 1.6 to 4.6 min | ETP (endogenous thrombin potential, ETP_ATG), median (IQR) (thrombin generation [1]; Tmin (trough)): 1741 (1602-2290) AU⋅min/L | ETP (endogenous thrombin potential, ETP_ATG), range (thrombin generation [1]; Tmin (trough)): 1111-2715 AU⋅min/L | Thrombin peak height (Cmax_ATG), median (IQR) (thrombin generation [1]; Tmin (trough)): 349 (279-380) AU/L | Thrombin peak height (Cmax_ATG), range (thrombin generation [1]; Tmin (trough)): 168-499 AU/L | Thrombography Tlag (Lag_ATG), median (IQR) (thrombin generation [1]; Tmin (trough)): 0.2 (0.1-0.2) min | Thrombography Tlag (Lag_ATG), range (thrombin generation [1]; Tmin (trough)): 0.1 to 0.5 min | Time to peak (Tmax_ATG), median (IQR) (thrombin generation [1]; Tmin (trough)): 1.85 (1.6-2.1) min | Time to peak (Tmax_ATG), range (thrombin generation [1]; Tmin (trough)): 1.6 to 2.1 min | Change of ETP_ATG with increasing DOAC plasma concentrations (thrombin generation [1]; all ADAGE patient samples): decreased | Effect of DOAC concentration at Tmax (βC.pic) on thrombography peak height (PH) (thrombin generation [1]; [6]): ≈ 0.4838% | Effect of DOAC concentration at Tmin (βC.res) on thrombography peak height (PH) (thrombin generation [1]; [7]): ≈ 0.4447% | DOAC concentration, median (IQR) ([2]; Tmax (peak)): 171 (123-280) ng/mL | DOAC concentration, range ([2]; Tmax (peak)): 79 to 665 ng/mL | DOAC concentration, median (IQR) ([2]; Tmin (trough)): 39 (20-70) ng/mL | DOAC concentration, range ([2]; Tmin (trough)): 20 to 106 ng/mL | DOAC plasma concentration, lower end of range [2, 8]: < 20 ng/mL | DOAC plasma concentration, upper end of range [2, 8]: 665 ng/mL | Samples in which spontaneous clotting occurred (fibrin clot formation [3]): 33% | CS (clot size at 30 minutes), median (IQR) (fibrin clot formation [4]; [9]): 1436 (1332-1583) μm | CS (clot size at 30 minutes), range (fibrin clot formation [4]; [9]): 1273-2125 μm | D (clot density), median (IQR) (fibrin clot formation [4]; [9]): 28,810 (27,570-29,170) a.u. | D (clot density), range (fibrin clot formation [4]; [9]): 22,740-29,360 a.u. | Fibrinography Tlag (lag time), median (IQR) (fibrin clot formation [4]; [9]): 1.3 (1.2-2.0) min | Fibrinography Tlag (lag time), range (fibrin clot formation [4]; [9]): 1.0 to 3.9 min | Initial rate of clot growth (Vi), median (IQR) (fibrin clot formation [4]; [9]): 60.9 (57.8-65.6) μm/min | Initial rate of clot growth (Vi), range (fibrin clot formation [4]; [9]): 54.5-74.4 μm/min | Time to Tsp (spontaneous clotting), range (fibrin clot formation [4]; [9]): 9.8 to 58.5 min | CS (clot size at 30 minutes), median (IQR) (fibrin clot formation [4]; [10]): 1707 (1634-1904) μm | CS (clot size at 30 minutes), range (fibrin clot formation [4]; [10]): 1612-2205 μm | D (clot density), median (IQR) (fibrin clot formation [4]; [10]): 32,220 (30,160-36,290) a.u. | D (clot density), range (fibrin clot formation [4]; [10]): 26,190-39,810 a.u. | Fibrinography Tlag (lag time), median (IQR) (fibrin clot formation [4]; [10]): 1.0 (0.9-1.1) min | Fibrinography Tlag (lag time), range (fibrin clot formation [4]; [10]): 0.8 to 1.3 min | Initial rate of clot growth (Vi), median (IQR) (fibrin clot formation [4]; [10]): 70.3 (66.9-75.1) μm/min | Initial rate of clot growth (Vi), range (fibrin clot formation [4]; [10]): 57.5-79.5 μm/min | Time to Tsp (spontaneous clotting), median (IQR) (fibrin clot formation [4]; [10]): 13.7 (11.0-22.2) min | Time to Tsp (spontaneous clotting), range (fibrin clot formation [4]; [10]): 7.4 to 54.6 min | Change of CS (clot size) with increasing concentrations (fibrin clot formation [4]; all ADAGE patient samples): decreased | Association of D (clot density) with DOAC concentration (fibrin clot formation [4]; [11]): significantly associated | Relationship between time to spontaneous clot formation (Tsp) and DOAC levels (fibrin clot formation [4]; [11]): significant association | Effect of DOAC concentration at Tmax (βC.pic) on fibrinography initial velocity of clot formation (fibrin clot formation [4]; [6]): ≈ 0.01723% | Effect of DOAC concentration at Tmin (βC.res) on fibrinography initial velocity of clot formation (fibrin clot formation [4]; [7]): ≈ 0.1281% | Change of Ast (stationary amplitude of thrombin moving peak) with increasing concentrations (thrombin generation [5]): decreased | Effect on Cmax_ATG, ETP_ATG and Ast compared with the other DOACs (thrombin generation [5]): more pronounced effect
